# Literature values as cited in EP0661967B1, “COMBINED VIRUSTATIC ANTIMEDIATOR (COVAM) TREATMENT OF COMMON COLDS” (UNIVERSITY OF VIRGINIA PATENT FOUNDATION, priority 1991, dated 1993).
# Experiments:
# rhinovirus [1] = conditions: in vivo
# rhinovirus [2] = system: rhinovirus
SMILES,effect on nasal symptoms and nasal mucus production (rhinovirus [1]),mean total symptom scores during four days of treatment (rhinovirus [1]),mean total symptoms score lower than that for the group receiving placebo (rhinovirus [2]; four days of treatment),"mean total symptoms score during the four days of treatment (rhinovirus [2]; loading dose 400 or 500 mg, then 200 or 500 mg three times a day for five days, begun 6 hours after virus challenge, placebo 17.35±2.6, p=0.08)","headache, malais, myalgia, and cough (rhinovirus [2]; treated group versus placebo)"
CC(C)[N+]1(C)[C@@H]2CC[C@H]1C[C@@H](OC(=O)C(CO)c1ccccc1)C2 (some centres unmarked) [ipratropium],mild beneficial effect,10±1.6,,,
COc1ccc2cc([C@H](C)C(=O)O)ccc2c1 [naproxen],,,thirty four,12±1.65,significantly reduced
